Experimental data reported in US8486984B2, “Aminomethyl substituted bicyclic aromatic compounds suitable for treating disorders that respond to modulation of the dopamine D3 receptor” (Abbott GmbH & Co., KG, priority 2004, dated 2013).
pKi: −log10 of the molar value. Where a name gives a salt, the structure may show the parent alone.

Tests used:
[1] = molecular target: T1, human dopamine D3 receptors (Homo sapiens, UniProt P35462); test: Dopamine D3 receptor binding, [125I]-iodosulpride displacement; settings: for pKi: membranes from HEK-293 cells stably expressing receptor, 0.1 nM [125I]-iodosulpride, 25° C., 60 minutes; for Ki(D2)*/Ki(D3)*: selectivity, ratio of receptor binding constants D2/D3
T1 construct: expressed in transfected cells; membranes)
T1 sequence (P35462 whole entry): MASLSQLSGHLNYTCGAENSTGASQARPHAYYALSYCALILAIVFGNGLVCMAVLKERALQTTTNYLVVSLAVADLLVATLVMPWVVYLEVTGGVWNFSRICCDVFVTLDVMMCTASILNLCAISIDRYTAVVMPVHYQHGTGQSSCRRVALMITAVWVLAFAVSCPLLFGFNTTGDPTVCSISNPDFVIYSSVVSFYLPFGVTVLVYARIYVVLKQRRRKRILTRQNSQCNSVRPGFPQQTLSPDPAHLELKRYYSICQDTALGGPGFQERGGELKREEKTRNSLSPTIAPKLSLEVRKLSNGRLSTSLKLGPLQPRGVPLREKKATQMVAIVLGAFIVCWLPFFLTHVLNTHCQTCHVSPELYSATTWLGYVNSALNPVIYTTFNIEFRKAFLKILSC
Protocol: (§1) The substance to be tested was either dissolved in methanol/Chremophor® (BASF-AG) or in dimethyl sulfoxide and then diluted with water to the desired concentration.
(§2) Each assay mixture was run in triplicate.
The incubation buffer contained 50 mM tris, 120 mM NaCl, 5 mM KCl, 2 mM CaCl2, 2 mM MgCl2 and 0.1% bovine serum albumin, 10 μM quinolone and 0.1% ascorbic acid (prepared fresh daily). The buffer was adjusted to pH 7.4 with HCl.
(§3) After having been incubated at 25° C. for 60 minutes, the assay mixtures were filtered through a Whatman GF/B glass fiber filter under vacuum using a cell collecting device. The filters were transferred to scintillation viols using a filter transfer system. After 4 ml of Ultima Gold® (Packard) have been added, the samples were shaken for one hour and the radioactivity was then counted in a Beta-Counter (Packard, Tricarb 2000 or 2200CA). The cpm values were converted into dpm using a standard quench series and the program belonging to the instrument.
(§4) The inhibition curves were analyzed by means of iterative nonlinear regression analysis using the Statistical Analysis System (SAS) which is similar to the “LIGAND” program described by Munson and Rodbard.

[2] = molecular target: T2, human dopamine D2L receptors (long isoform) (Homo sapiens, UniProt P14416); test: Dopamine D2L receptor binding, [125I] iodospiperone displacement; settings: membranes from HEK-293 cells stably expressing receptor; 0.01 nM [125I] iodospiperone; 25° C., 60 minutes; read-out: Ki(D2)*
T2 construct: expressed in transfected cells; membranes)
T2 sequence (P14416 whole entry, canonical isoform): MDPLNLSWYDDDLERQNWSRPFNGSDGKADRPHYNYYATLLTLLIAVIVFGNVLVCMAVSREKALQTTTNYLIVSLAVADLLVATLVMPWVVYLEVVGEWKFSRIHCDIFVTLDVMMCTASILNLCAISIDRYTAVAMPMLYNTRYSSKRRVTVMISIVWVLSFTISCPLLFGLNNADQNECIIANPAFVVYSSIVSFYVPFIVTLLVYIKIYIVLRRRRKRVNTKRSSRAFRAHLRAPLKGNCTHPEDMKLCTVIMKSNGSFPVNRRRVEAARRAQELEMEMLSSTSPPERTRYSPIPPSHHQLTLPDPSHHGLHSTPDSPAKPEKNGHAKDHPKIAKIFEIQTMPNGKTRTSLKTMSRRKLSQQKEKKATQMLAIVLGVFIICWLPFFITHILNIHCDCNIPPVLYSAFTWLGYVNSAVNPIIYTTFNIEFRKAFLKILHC
Protocol: as §1, §2
The incubation buffer contained 50 mM tris, 120 mM NaCl, 5 mM KCl, 2 mM CaCl2, 2 mM MgCl2 and 0.1% bovine serum albumin. The buffer was adjusted to pH 7.4 with HCl.
as §3, §4

`CCCN1CC2CCc3cc(NS(=O)(=O)c4ccc(OC(F)F)cc4)ccc3C2C1.Cl` (stereo not shown) [Example 17, 4-Difluoromethoxy-N-(2-propyl-2,3,3a,4,5,9b-hexahydro-1H-benzo[e]isoindol-7-yl)-benzenesulfonamide, hydrochloride] was tested, and the pKi [1] was 8.48 and the “Ki(D2)*/Ki(D3)*” value [1] was 19.

For `CCCNCc1cc2cc(NS(=O)(=O)c3ccc(OC(F)(F)F)cc3)ccc2[nH]1` [Example 3, N-(2-Propylaminomethyl-1H-indol-5-yl)-4-trifluoromethoxy-benzenesulfonamide×½ fumaric acid], the pKi [2] was 7.26, the pKi [1] was 7.26 and the “Ki(D2)*/Ki(D3)*” value [1] was 23.

In the case of `CCCNCC1CCc2cc(NS(=O)(=O)c3ccc(C(C)C)cc3)ccc21` (stereo not shown) [Example 10, 4-Isopropyl-N-(1-propylaminomethyl-indan-5-yl)-benzenesulfonamide], the pKi [2] was 7.23, the pKi [1] was 8.88 and the “Ki(D2)*/Ki(D3)*” value [1] was 45.

In the case of `CCCNCc1cc2cc(NS(=O)(=O)c3ccc(C(C)C)cc3)ccc2[nH]1` [Example 1, 4-Isopropyl-N-(2-propylaminomethyl-1H-indol-5-yl)-benzenesulfonamide], the pKi [2] was 6.65, the pKi [1] was 8.24 and the “Ki(D2)*/Ki(D3)*” value [1] was 39.

`CCCNCC1Cc2cc(NS(=O)(=O)c3ccc(OC(F)(F)F)cc3)ccc2N1` (stereo not shown) [Example 4, N-(2-Propylaminomethyl-2,3-dihydro-1H-indol-5-yl)-4-trifluoromethoxy-benzenesulfonamide×HCl] was tested, and the pKi [2] was 5.12, the pKi [1] was 7.20 and the “Ki(D2)*/Ki(D3)*” value [1] was 120.

With `CCCN1CC2CCc3c(cc(Cl)c(NS(=O)(=O)c4ccc(C(C)C)cc4)c3Cl)C2C1.Cl` (stereo not shown) [Example 13, N-(6,8-Dichloro-2-propyl-2,3,3a,4,5,9b-hexahydro-1H-benzo[e]isoindol-7-yl)-4-isopropyl-benzenesulfonamide, hydrochloride] the pKi [1] was 8.00 and the “Ki(D2)*/Ki(D3)*” value [1] was 5.

In the case of `CCCN1CC2CCc3cc(NS(=O)(=O)c4ccc(C(C)C(F)(F)F)cc4)ccc3C2C1.Cl` (stereo not shown) [Example 15, N-(2-Propyl-2,3,3a,4,5,9b-hexahydro-1H-benzo[e]isoindol-7-yl)-4-(2,2,2-trifluoro-1-methylethyl)-benzenesulfonamide, hydrochloride], the pKi [1] was 8.74 and the “Ki(D2)*/Ki(D3)*” value [1] was 36.

`CCCNCC1Cc2cc(NS(=O)(=O)c3ccc(C(C)C)cc3)ccc2N1` (stereo not shown) [Example 2, 4-Isopropyl-N-(2-propylaminomethyl-2,3-dihydro-1H-indol-5-yl)-benzenesulfonamide×HCl] was tested, and the pKi [2] was 6.29, the pKi [1] was 8.03 and the “Ki(D2)*/Ki(D3)*” value [1] was 55.

With `C=CCNCC1Cc2cccc(NS(=O)(=O)c3ccc(C(C)C)cc3)c2C1` (stereo not shown) [Example 9, 4-Isopropyl-N-(2-allylaminomethyl-indan-4-yl)-benzenesulfonamide] the pKi [2] was 6.63, the pKi [1] was 8.37 and the “Ki(D2)*/Ki(D3)*” value [1] was 54.

In the case of `CCCN1CCC2c3ccc(NS(=O)(=O)c4ccc(C(C)C)cc4)cc3NC2C1` (stereo not drawn) [Example 12, 4-Isopropyl-N-(2-propyl-2,3,4,4a,9,9a-hexahydro-1H-beta-carbolin-7-yl)-benzenesulfonamide], the pKi [2] was 6.86, the pKi [1] was 8.28 and the “Ki(D2)*/Ki(D3)*” value [1] was 26.

In the case of `CCCN1CC2CCc3cc(NS(=O)(=O)c4ccc(OC(F)(F)F)cc4)ccc3C2C1.Cl` (stereo not shown) [Example 16, N-(2-Propyl-2,3,3a,4,5,9b-hexahydro-1H-benzo[e]isoindol-7-yl)-4-trifluoromethoxy-benzenesulfonamide hydrochloride], the pKi [1] was 8.44 and the “Ki(D2)*/Ki(D3)*” value [1] was 66.

With `CCCNCC1CCCc2cc(NS(=O)(=O)c3ccc(C(C)C)cc3)ccc21` (stereo not shown) [Example 5, 4-Isopropyl-N-(5-propylaminomethyl-5,6,7,8-tetrahydro-naphthalen-2-yl)-benzenesulfonamide×HCl] the pKi [2] was 6.92, the pKi [1] was 8.76 and the “Ki(D2)*/Ki(D3)*” value [1] was 69.

In the case of `CCCNCC1Cc2ccc(NS(=O)(=O)c3ccc(C(C)C)cc3)cc2C1` (stereo not shown) [Example 7, 4-Isopropyl-N-(2-propylaminomethyl-indan-5-yl)-benzenesulfonamide], the pKi [2] was 6.40, the pKi [1] was 8.13 and the “Ki(D2)*/Ki(D3)*” value [1] was 54.

In the case of `CCCN1CC2CCc3cc(NS(=O)(=O)c4ccc(C(C)C)cc4)ccc3C2C1.Cl` (stereo not shown) [Example 14, 4-Isopropyl-N-(2-propyl-2,3,3a,4,5,9b-hexahydro-1H-benzo[e]isoindol-7-yl)-benzenesulfonamide, hydrochloride], the pKi [1] was 9.30 and the “Ki(D2)*/Ki(D3)*” value [1] was 28.
